Measured values taken from patent publication US20180228897A1, “Compositions for Vapor Phase Delivery of Active Compounds, Methods of Making and Using Same, and Kits Comprising Same” (Atmovita, LLC, priority 2015, published 2018).
≈ marks a conversion by molar mass, not a printed value.

How the values were obtained:
Type in all cases: physicochemical
[1] = Solubility of piracetam and pantothenic acid in stock; conditions: glycerin/2,3 butane diol stock, organic solvent or mixture
[2] = Preparation of compositions (Example 3): appearance and stability of the solution; conditions: heated at 175° C.
[3] = Folate solubility in glycerin/2,3 butane diol stock compositions with co-solutes (incremental addition, heat gun, stirring)
Description: Folate. Folate and biotin are the two most difficult to dissolve B vitamins. Folate solubility enhancement was provided by addition of beta-cyclodextrin.
The solubility enhancement from mannitol/biotin alone was tested next. […] This is major improvement over most polar solvents (0.0016 g/L of water at 25° C.).
First the mannitol/biotin powder was mixed with 0.004 g of folate. This was added to the test tube followed by the liquid. It was stirred vigorously. Then it was heated with a heat gun until clear and no folate was suspended. […] All the liquid was moved to another test tube and the precipitate remained. Then folate was incrementally added (about 1 mg) and the solution was stirred, followed by heating** until it became clear. It would take at least 3 minutes of heating for it to become clear but as more folate was added, at least 4 minutes of heating were needed. This is how the original solution was formed. Over the course of several days there was no further precipitate or increase in viscosity. ** all heating was done with the yellow heat gun on the lowest setting (240° F.)
While heating and stirring the lid popped off and 0.75 ml of solution spilled out. Even accounting for folate lost in the spill, currently at least 8 mg of folate have been dissolved in 2.75 ml and the solution is completely clear. Heating the solution caused the lid to pop so it must be removed after about 1 minute and 30 seconds of heating prior to any further heating. It is also crucial for the solution to have been flipped upside down, preferably while warm. The solution must not be heated while flipped as this may cause a spill.
The original solution still has less much viscosity but also a slightly lower concentration of folate. It appears that somewhere beyond 8 mg folate/[…] of solution it becomes supersaturated, resulting in a thick gel upon settling and cooling. […] As long as supersaturation followed by settling is avoided, the solution will remain liquid. Another option is to study the effect of precipitation inhibitors or the sonicator to further boost solubility without increasing viscosity.
Testing was also done with only stock, stock+water and stock+ethanol but having both water and ethanol is crucial to the process. […] Despite having separated the liquid from the precipitate which was nearly all biotin/mannitol, the powder still played a role in improving folate solubility. […] The following composition (3 ml stock+0.25 ml water+0.25 ml ethanol+0.009 g of biotin) dissolved 11.2 mg of folate but became extremely viscous.
According to research on drug solubility there is a class of molecules known as hydrotropes (also known as chaotropes, […]). They reduce hydrophobic forces between non-polar solutes in polar solvents. One such molecule is niacinamide (vitamin B3 amide). These hydrotropes are planar and are either very polar or have nonpolar and polar sides like surfactants but shorter. This experiment was repeated with niacinamide as a cosolute and with a combination of B3 amide and Biotin. The biotin and B3 amide were added along with 4 mg of folate (and crushed together) wet into dry to the solution. The remaining folate was added incrementally along with heating and stirring. […] (2.5 ml stock+0.5 ml water+0.5 ml ethanol+0.0221 g of B3 amide) dissolved approximately 11 mg of folate and a small amount of precipitate. (2.5 ml stock+0.5 ml water+0.5 ml ethanol+0.0221 g of B3 amide+0.090 g pure biotin) dissolved approximately 11.4 mg of folate without precipitate. Unfortunately both solutions were extremely viscous after a few days.
Eventually the B3 amide and biotin cosolute solution was prepared using “reverse stock” instead of regular with the goal of lowering viscosity. The reverse stock is a solution of 3:7 mol glycerin and 2,3 butane diol. Initially this made folate precipitate so additional glycerin was added to achieve a 1:1 mol ratio of glycerin to 2,3 butane diol.

[4] = Trans resveratrol solubility in stock with solvents and co-solutes (incremental addition, heat gun); conditions: solution 2 (3.5 ml pure carvone) and solution 4 (3 ml carvone+0.5 ml ethanol), without heating
Description: The initial approach was to test non polar solvents and their effectiveness with ethanol. This included pure stock as a control, carvone, and combinations of those solvents with ethanol. The following solvents were prepared: Control—3.5 ml of pure stock, 1-1.75 ml of stock+1.75 ml of carvone+0.2 ml of 0.01 mol NaOH, 2-3.5 ml of pure carvone, 3-3 ml of stock+0.5 ml of ethanol, 4-3 ml of carvone+0.5 ml of ethanol.
Solution 1 became biphasic and cloudy. The control and solution 4 have approximately the same solubility of TR. […] Solvent was added until the TR was dissolved which occurred at 60 mg/ml of stock. This original solution was split into 5 test tubes of 1 ml each with about 0.06 g of TR.
The following solutions were made: 1—adding […] of carvone (equimolar with TR, 0.000263 mol of each) 2—adding 0.175 ml of ethanol 3-0.235 ml of carvone and 0.1 ml of ethanol. Solution 1 became cloudy because the carvone is immiscible with the stock. Several attempts to fix this were made using of ethanol and B3 amide as hydrotropes but it had no effect.
Next co-solutes were used along with the TR in stock solution. 0.000263 mol of the following were dissolved along with TR in 3 ml stock: 1-niacin, 2-caffeine, 3-gallic acid, 4-salicylic acid, 5-thiamine, 6-niacinamide, and 7-pantothenic acid. Two additional samples were prepared of 0.01 g biotin (8) and 0.04 g of -pyridoxine HCl (9). Each solution consisted of the stated amount of co-solute and 3 ml of stock. The following amounts of TR (which was added incrementally (30-40 mg) and heated for 3-4 minutes by heat gun) created the following:
To conduct further testing 0.5 ml of ethanol was added to the solutions with niacin, biotin, thiamine, and salicylic acid. The successful B3 amide solution was split into two solutions of (1.625 and 1.375 ml) with 0.25 ml of ethanol being added to the 1.375 ml solution. The results were as follows:
There was also testing with multiple solutes in 3 ml of stock:
Currently piperazine hexahydrate is being tested as it is another hydrotrope. […] It may work better with other co-solutes or ethanol.

[5] = Folate solubility in glycerin/2,3 butane diol stock compositions with co-solutes (incremental addition, heat gun, stirring); conditions: 2.5 ml stock+0.15 ml water+0.15 ml ethanol+0.01135 g beta-cyclodextrin+0.0182 g biotin/mannitol+0.00441 folate, without heating
[6] = Increase in solubility of active compounds in the present compositions
Text: It is advantageous to take measures to increase the solubility of an active compound or active compounds within a composition that includes components that serve as excipients such that true solubilization of the compound(s) occurs and the activity of the active compounds are retained upon transition to the vapor phase. The present disclosure is based on the result that the solubility of active compounds can be increased by surprising and unexpected amounts.

solubility [1]	appearance of composition ([2]; 0.2 grams piracetam in 1.5 ml stock, 2.0 ml fruit flavored vodka, 0.1 ml flavored glycerin)	amount of folate dissolved ([3]; 0.0221 g B3 amide, 0.0047 mg biotin, 3.5 ml equimolar glycerin and 2,3 butane diol, 0.5 ml water, 0.5 ml ethanol)	amount of folate dissolved ([3]; 2.5 ml stock+0.5 ml water+0.5 ml ethanol+0.0221 g B3 amide+0.090 g pure biotin, without precipitate)	amount of folate dissolved ([3]; 2.5 ml stock+0.5 ml water+0.5 ml ethanol+0.0221 g B3 amide, small amount of precipitate)	amount of folate dissolved ([3]; 3 ml stock+0.25 ml water+0.25 ml ethanol+0.009 g biotin)	amount of folate dissolved ([3]; 3 ml stock+0.25 ml water+0.25 ml ethanol+0.0182 g biotin/mannitol)	amount of folate dissolved ([3]; liquid only part of the same solution, no mannitol/biotin powder)	amount of folate dissolved ([3]; repeat experiment, in 2.75 ml of the biotin/mannitol solution, completely clear)	concentration beyond which solution becomes supersaturated (thick gel on settling and cooling) ([3]; stock+water+ethanol+biotin/mannitol solution)	dissolution in carvone solvents [4]	increase in solubility [6]	appearance of composition ([2]; 8 mg folic acid, 22.1 mg nicotinamide, 4.7 mg biotin in 3.5 ml (0.5 mol glycerin/0.5 mol propylene glycol), 0.5 ml water, 0.5 ml ethanol, flavors)	Structure (SMILES)	appearance of solution [5]
36.5 mg/mL (≈ 257 mM)	clear solution with flavor	–	–	–	–	–	–	–	–	–	–	–	NC(=O)CN1CCCC1=O [Piracetam, piracetam]	–
–	–	9 mg	approximately 11.4 mg	approximately 11 mg	11.2 mg	approximately 0.008 g	< 1.6 mg	at least 8 mg	> 8 mg folate/3.5 ml of solution	easily dissolved	≤ 15,000%	clear solution with flavor	Nc1nc2ncc(CNc3ccc(C(=O)N[C@@H](CCC(=O)O)C(=O)O)cc3)nc2c(=O)[nH]1 [folate, folic acid]	clear with some orange (folate) precipitate on the bottom of the vial
